In ChEMBL document CHEMBL5674884, “Ezh2 inhibition in Kras-driven lung cancer amplifies inflammation and associated vulnerabilities” (J Exp Med, 2018):
Calls of active or inactive are those of the source. No cut-off for these calls is given here.

What was measured:
[1] = test system: A549; test: Reversal of GSK126 dependent antiinflammatory activity in human A549 cells assessed as decrease in Irak1 level by qRT-PCR analysis; assay type: functional, cell-based
[2] = test system: A549; test: Reversal of GSK126 dependent antiinflammatory activity in human A549 cells assessed as decrease in Ccl2 level by qRT-PCR analysis; assay type: functional, cell-based
[3] = test system: A549; test: Reversal of GSK126 dependent antiinflammatory activity in human A549 cells assessed as decrease in Il1ra level by qRT-PCR analysis; assay type: functional, cell-based
[4] = test system: A549; test: Reversal of GSK126 dependent antiinflammatory activity in human A549 cells assessed as decrease in IL-6 level by qRT-PCR analysis; assay type: functional, cell-based
[5] = test system: NSCLC; test: Antitumor activity in KrasG12D/+ harbouring mouse NSCLC cells xenografted in BALB/c nude mouse assessed as reduced tumor progression; assay type: functional; conditions: dose 50.0 mg/kg, route iv

Row | Structure (SMILES) | Activity [1] | Activity [2] | Activity [3] | Activity [4] | Activity [5]
1 | CN1CC[C@H](c2c(O)cc(O)c3c(=O)cc(-c4ccccc4Cl)oc23)[C@H](O)C1 | Active | Active | Active | Active | 
2 | CC(C)C[C@H](NC(=O)[C@H](Cc1ccccc1)NC(=O)c1cnccn1)B(O)O |  |  |  |  | inactive
